Source: patent US12508328B2, “Bio-activated reporters to visualize, in real time, specific gene therapy products” (Northwestern University, priority 2019, dated 2025)

Columns and labels:
β-galactosidase = biological target: T1, β-galactosidase (Escherichia coli, UniProt P00722); format: biochemical; conditions: 25° C., TES buffer, 1 mM MgCl2, 150 mM NaCl; for Kcat: 420 nm; for Km: nitro-phenol absorbance 420 nm
T1 construct: purchased Sigma Aldrich
Description: Catalytic efficiencies for five substrates, 5a-c, ONPG, and PNPG were evaluated by UV-vis spectroscopy (Table 3). ONPG and PNPG are literature standards that were used to ensure the assay was performed adequately and to serve as benchmarks of activation kinetics in the absence of the GdIII chelate. […] Catalytic efficiency is directly related to the imaging window wherein activation to the r1, on state is competing with clearance.
Enzyme activation kinetics were determined by the method of initial rates for compounds 5a-c via the appearance of the nitrophenol byproduct of activation. The characteristic absorption was monitored at 420 nm. Concentrations of substrate used were 0, 0.05, 0.1, 0.12, 0.15, 0.3, 0.4, 0.5, 0.75, 1, and 2 mM. Each concentration was measured in triplicate and exact concentrations were measured by ICP-MS (see Table 2).

[1] = Relaxivity (1.4 T) in MOPS and MOPS/CO3^2−; format: physicochemical; conditions: intermolecular series 5a-c, 37° C.
Description: While measurements of q indicate how well an agent can restrict water access to the GdIII center, the most important property for a bio-activated contrast agent is the change in relaxivity upon enzymatic cleavage (r1). To evaluate the signal change in the presence of CO32−, relaxivities of the intermolecular activated agents were measured in two different buffer conditions, the non-coordinating buffer MOPS and MOPS/CO32−.
T1 relaxation times were obtained for 5a-c (FIG. 13), and complexes 10a-d (FIG. 14), and 11 at 37° C. at 60 MHz (1.4 T) on a Bruker mq60 minispec spectrometer (Billerica, MA). Three 1 mM solutions of each complex were prepared in four different buffer conditions 1) 10 mm 3-(N-morpholino)propanesulfonic acid (MOPS), 100 mm NaCl, pH 7.4, 2) 10 mm MOPS, 24 mm NaHCO3, 100 mm NaCl, pH 7.4, 3) Dulbecco's Phosphate Buffer (DPBS) pH 7.3 Life Technologies, and 4) b-galactosidase enzyme assay buffer, 200 mm sodium phosphate, 100 mm bmercaptoethanol, 2 mm MgCl2, pH 7.3 (FIG. 15). Three sets of five serial dilutions (about 1 mm, 0.5 mm, 0.25 mm, 0.125 mm and 0.0625 mm) were prepared for each complex. T1 relaxation rates were measured using an inversion recovery pule sequence (t1_ir_mb) with a 10 ms first pulse separation, recycle delay and final pulse separation ≥5 T1. T1 relaxation rates were plotted as a function of GdIII concentrations as determined by ICP-MS, r1/r2 was obtained from linear fit of concentration vs. T1 as described in Equation (1).

[2] = Terbium(III) luminescence: determination of q; format: physicochemical; conditions: for q (H2O): pure water; for τD2O: D2O; for τH2O: H2O
Description: The q number in the absence and presence of CO32− was determined using TbIII analogues (5a′, 5b′, 5c′, and 11′). Given the similarities in chemistry amongst the lanthanides, TbIII luminescence is a convenient and established method for determining the coordination environment in corresponding GdIII chelates. The narrow […] emission at 543 nm and the relatively long lived 0.4 ms excited state lifetime for Tb(H2O)x facilitates accurate assessment of the inner-coordination sphere, differentiating between coordination of OH, OD, NH, and ND oscillators. 38 Luminescent decay curves were fit to the empirically derived Horrock's equation (Eq. 2). It was expected that the ortho position would have the lowest q in the presence of CO32−, creating a “dark” state with the lowest relaxivity.
The number of water molecules directly coordinated to the lanthanide center (q), was determined for each of the TbIII analogues 5a′-c′ (see Table 1), 10a′-d′ (Table 2), and 11′ in MilliQ water and MOPS/carbonate buffer (10 mm MOPS, 24 mm NaHCO3, pH 7.4).
The monoexponential fluorescence decay of an ≈1 mm solution of each complex was determined using a Hitachi F4500 fluorometer (Schaumburg, IL). An excitation wavelength of 308 nm and an emission wavelength of […] were used, and 25 scans were acquired and averaged for each solution. The averaged data was fit with a monoexponential decay function, and the time constant (t) for each solution was determined in triplicate. The fluorescence decay curves of the complexes were measured in both H2O and D2O, and in both buffer and deuterated buffer, obtained by lyophilizing and re-suspending the buffer in D2O three times (FIG. 17A-E). The q values were calculated using the empirically derived Horrock's equation for Tb(III) (Eq. 2): […]

[3] = Horrock's equation for TbIII, MOPS/CO32- buffer pH 7.4
[4] = Tb(III) analogues, emission 543 nm, ambient temperature
[5] = deuterated MOPS/CO32- buffer pH 7.4
[6] = 10a′-d′, Horrock's equation, MOPS/CO3^2− buffer pH 7.4
[7] = 10a′-d′, MOPS/CO3^2− buffer pH 7.4
[8] = 10a′-d′, deuterated MOPS/CO3^2− buffer pH 7.4
[9] = Tb(III) analogues 10a′-d′, emission 543 nm

T1 sequence (P00722 2-1024): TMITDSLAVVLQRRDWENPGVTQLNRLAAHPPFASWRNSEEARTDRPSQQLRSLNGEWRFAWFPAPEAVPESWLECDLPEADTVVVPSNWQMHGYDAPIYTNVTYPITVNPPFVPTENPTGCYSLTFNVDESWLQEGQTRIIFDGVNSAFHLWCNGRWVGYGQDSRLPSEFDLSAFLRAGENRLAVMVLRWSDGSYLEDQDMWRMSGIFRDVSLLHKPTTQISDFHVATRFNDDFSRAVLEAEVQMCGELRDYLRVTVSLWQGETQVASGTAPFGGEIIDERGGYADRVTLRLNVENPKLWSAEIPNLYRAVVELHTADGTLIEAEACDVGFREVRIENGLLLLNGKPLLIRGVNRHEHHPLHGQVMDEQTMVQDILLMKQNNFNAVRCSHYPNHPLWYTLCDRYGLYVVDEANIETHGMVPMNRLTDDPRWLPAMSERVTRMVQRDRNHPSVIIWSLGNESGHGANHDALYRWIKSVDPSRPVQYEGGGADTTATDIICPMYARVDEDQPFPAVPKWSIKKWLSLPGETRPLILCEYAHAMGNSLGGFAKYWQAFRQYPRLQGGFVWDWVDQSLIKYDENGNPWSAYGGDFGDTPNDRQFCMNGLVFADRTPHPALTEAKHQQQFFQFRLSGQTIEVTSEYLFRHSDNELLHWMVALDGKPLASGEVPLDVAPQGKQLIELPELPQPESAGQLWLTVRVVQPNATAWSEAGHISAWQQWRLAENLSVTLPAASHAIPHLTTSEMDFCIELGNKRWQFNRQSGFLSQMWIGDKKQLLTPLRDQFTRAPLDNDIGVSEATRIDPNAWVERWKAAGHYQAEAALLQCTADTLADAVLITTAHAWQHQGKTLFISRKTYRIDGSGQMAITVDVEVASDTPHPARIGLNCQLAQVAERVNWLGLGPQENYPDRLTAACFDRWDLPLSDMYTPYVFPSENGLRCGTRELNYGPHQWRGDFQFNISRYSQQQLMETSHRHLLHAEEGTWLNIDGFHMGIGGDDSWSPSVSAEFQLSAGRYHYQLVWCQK

Row | Compound | Kcat (β-galactosidase) | Km (β-galactosidase) [µM] | q (buffer) [2, 6] | q (H2O) ([2]; 10a′-d′, Horrock's equation) | τHbuf [2, 7] | τDbuf [2, 8] | τD2O ([2]; Tb(III) analogues 10a′-d′) | τH2O [2, 9] | other results
1 | O=C([O-])CN1CCN(CCNC(=O)OCc2cc([N+](=O)[O-])ccc2O[C@@H]2O[C@H](CO)[C@H](O)[C@H](O)[C@H]2O)CCN(CC(=O)[O-])CCN(CC(=O)[O-])CC1.[Gd+3] [5a, Gadolinium(III)-1-(2-(2-(1-(4,7,10-triscarboxymethyl-(1,4,7,10tetraazacyclododecyl)))ethylcarbamoyloxymethyl)-4-nitrophenyl)-β-D-galactopyranose] | 637 +/− 21.9 S−1 | 272 |  |  |  |  |  |  | Δr1 relative to the cleaved complex 11 (percent change in relaxivity, dark to bright) [1]: negative
2 | O=C([O-])CN1CCN(CCNC(=O)OCc2cc([N+](=O)[O-])ccc2O[C@@H]2O[C@H](CO)[C@H](O)[C@H](O)[C@H]2O)CCN(CC(=O)[O-])CCN(CC(=O)[O-])CC1.[Tb+3] [5a′, Terbium(III)-1-(2-(2-(1-(4,7,10-triscarboxymethyl-(1,4,7,10tetraazacyclododecyl)))ethylcarbamoyloxymethyl)-4-nitrophenyl)-β-D-galactopyranose] |  |  |  |  |  |  |  |  | q (buffer) [2, 3]: 0.2; q (H2O) ([2]; Horrock's equation for TbIII): 1.1; τHbuf ([2]; MOPS/CO32- buffer pH 7.4): 1.7(6) ms; τD2O [2, 4]: 2.2(3) ms; τH2O [2, 4]: 1.2(8) ms; τDbuf [2, 5]: 2.2(0) ms
3 | O=C([O-])CN1CCN(CCNC(=O)OCc2ccc([N+](=O)[O-])c(O[C@@H]3O[C@H](CO)[C@H](O)[C@H](O)[C@H]3O)c2)CCN(CC(=O)[O-])CCN(CC(=O)[O-])CC1.[Gd+3] [5b, Gadolinium(III)-1-(5-(2-(1-(4,7,10-triscarboxymethyl-(1,4,7,10tetraazacyclododecyl)))ethylcarbamoyloxymethyl)-2-nitrophenyl)-β-D-galactopyranose] | 679 +/− 135.8 S−1 | 791 |  |  |  |  |  |  | Δr1 relative to the cleaved complex 11 (percent change in relaxivity, dark to bright) [1]: 26%
4 | O=C([O-])CN1CCN(CCNC(=O)OCc2ccc([N+](=O)[O-])c(O[C@@H]3O[C@H](CO)[C@H](O)[C@H](O)[C@H]3O)c2)CCN(CC(=O)[O-])CCN(CC(=O)[O-])CC1.[Tb+3] [5b′, Terbium(III)-1-(5-(2-(1-(4,7,10-triscarboxymethyl-(1,4,7,10tetraazacyclododecyl)))ethylcarbamoyloxymethyl)-2-nitrophenyl)-β-D-galactopyranose] |  |  |  |  |  |  |  |  | q (buffer) [2, 3]: 0; q (H2O) ([2]; Horrock's equation for TbIII): 0.4; τHbuf ([2]; MOPS/CO32- buffer pH 7.4): 1.4(2) ms; τD2O [2, 4]: 1.6(6) ms; τH2O [2, 4]: 1.3(0) ms; τDbuf [2, 5]: 1.5(4) ms
5 | O=C([O-])CN1CCN(CCNC(=O)OCc2ccc(O[C@@H]3O[C@H](CO)[C@H](O)[C@H](O)[C@H]3O)c([N+](=O)[O-])c2)CCN(CC(=O)[O-])CCN(CC(=O)[O-])CC1.[Gd+3] [5c, Gadolinium(III)-1-(4-(2-(1-(4,7,10-triscarboxymethyl-(1,4,7,10tetraazacyclododecyl)))ethylcarbamoyloxymethyl)-2-nitrophenyl)-β-D-galactopyranose] | 765 +/− 37.8 S−1 | 129 |  |  |  |  |  |  | Δr1 relative to the cleaved complex 11 (percent change in relaxivity, dark to bright) [1]: negative
6 | O=C([O-])CN1CCN(CCNC(=O)OCc2ccc(O[C@@H]3O[C@H](CO)[C@H](O)[C@H](O)[C@H]3O)c([N+](=O)[O-])c2)CCN(CC(=O)[O-])CCN(CC(=O)[O-])CC1.[Tb+3] [5c′, Terbium(III)-1-(4-(2-(1-(4,7,10-triscarboxymethyl-(1,4,7,10tetraazacyclododecyl)))ethylcarbamoyloxymethyl)-2-nitrophenyl)-β-D-galactopyranose] |  |  |  |  |  |  |  |  | q (buffer) [2, 3]: 0; q (H2O) ([2]; Horrock's equation for TbIII): 0.7; τHbuf ([2]; MOPS/CO32- buffer pH 7.4): 1.0(2) ms; τD2O [2, 4]: 1.1(1) ms; τH2O [2, 4]: 0.8(9) ms; τDbuf [2, 5]: 1.0(7) ms
7 | CCOC(=O)CNc1cc(COC(=O)NCCN2CCN(CC(=O)[O-])CCN(CC(=O)[O-])CCN(CC(=O)[O-])CC2)ccc1O[C@@H]1O[C@H](CO)[C@H](O)[C@H](O)[C@H]1O.[Tb+3] [10a′, Terbium(III)-1-(4-(2-(1-(4,7,10-triscarboxymethyl-(1,4,7,10tetraazacyclododecyl)))ethylcarbamoyloxymethyl)-2-((2-ethoxy-2-oxoethyl)amino)phenyl)-β-D-galactopyranose] |  |  | 0.3 | 1.3 | 1.7(2) ms | 2.1(8) ms | 2.1(0) ms | 1.1(4) ms | 
8 | CCOC(=O)CCCNc1cc(COC(=O)NCCN2CCN(CC(=O)[O-])CCN(CC(=O)[O-])CCN(CC(=O)[O-])CC2)ccc1O[C@@H]1O[C@H](CO)[C@H](O)[C@H](O)[C@H]1O.[Tb+3] [10b′, Terbium(III)-1-(4-(2-(1-(4,7,10-triscarboxymethyl-(1,4,7,10tetraazacyclododecyl)))ethylcarbamoyloxymethyl)-2-((4-ethoxy-4-oxobutyl)amino)phenyl)-β-D-galactopyranose] |  |  | 0 | 0.5 | 1.8(9) ms | 1.8(8) ms | 2.2(6) ms | 1.6(3) ms | 
9 | CCOC(=O)CCCCCNc1cc(COC(=O)NCCN2CCN(CC(=O)[O-])CCN(CC(=O)[O-])CCN(CC(=O)[O-])CC2)ccc1O[C@@H]1O[C@H](CO)[C@H](O)[C@H](O)[C@H]1O.[Tb+3] [10c′, Terbium(III)-1-(4-(2-(1-(4,7,10-triscarboxymethyl-(1,4,7,10tetraazacyclododecyl)))ethylcarbamoyloxymethyl)-2-((6-ethoxy-6-oxohexyl)amino)phenyl)-β-D-galactopyranose] |  |  | 0.1 | 0.1 | 1.9(3) ms | 2.2(6) ms | 2.2(9) ms | 1.8(9) ms | 
10 | CCOC(=O)CCCCCCCNc1cc(COC(=O)NCCN2CCN(CC(=O)[O-])CCN(CC(=O)[O-])CCN(CC(=O)[O-])CC2)ccc1O[C@@H]1O[C@H](CO)[C@H](O)[C@H](O)[C@H]1O.[Tb+3] [10d′, Terbium(III)-1-(4-(2-(1-(4,7,10-triscarboxymethyl-(1,4,7,10tetraazacyclododecyl)))ethylcarbamoyloxymethyl)-2-((8-ethoxy-8-oxooctyl)amino)phenyl)-β-D-galactopyranose] |  |  | 0.1 | 0.1 | 1.9(7) ms | 2.0(2) ms | 2.2(6) ms | 1.9(3) ms | 
11 | O=[N+]([O-])c1ccccc1O[C@@H]1O[C@H](CO)[C@H](O)[C@H](O)[C@H]1O [ONPG, ortho-nitrophyenyl-[…]-galactoside, reference compound] | 600 +/− 29.7 S−1 | 120 |  |  |  |  |  |  | 
12 | O=[N+]([O-])c1ccc(O[C@@H]2O[C@H](CO)[C@H](O)[C@H](O)[C@H]2O)cc1 [PNPG, para-nitrophyenyl-[…]-galactoside, reference compound] | 276 +/− 16.9 S−1 | 61 |  |  |  |  |  |  | 
